Results from US4822892A, “N-heterocyclic platinum complexes” (Chugai Seiyaku Kabushiki Kaisha, priority 1984, dated 1989).

Columns and labels:
[1] = Test on side-effects: body weight and BUN (Experiment 4); type: in vivo, BDF1/Crj strain male mice
Excerpt: BDF1 /Crj strain male mice (6 weeks old) were intraperitoneally administered the test compound, and 1, 3 and 5 days after the administration, 3 mice were saceificed to determine the body weight and the level of urea nitrogen in blood (abbreviated as BUN).

[2] = cited from earlier work
[3] = test system: Colon 26 carcinoma; experiment: In vivo antitumor activity against Colon 26 carcinoma, single i.p. administration (Experiment 1); design: species or system CDF1/Crj strain male mouse; details: tumor weighed 10 days after administration
Excerpt: A small piece of Colon 26 tumor (1-2 mm^3) was subcutaneously implanted in a lateral region of abdomen of a CDF1 /Crj strain male mouse (6 weeks old). Four days after the implantation, mice with the almost same size of tumor were divided into groups of 5-6 members each, and each mouse was intraperitoneally administered the test compound. Ten days after the administration, each of the mice was sacrificed, and the tumor was weighed to calculate the growth inhibitory ratio (GIR) by the following equation: [formula] wherein C and T represent the mean weights of tumor of the control group and the treated group, respectively.
Cisplatin (CDDP) which is a known compound was used as a comparison.

[4] = test system: plasma proteins; experiment: In vitro binding to plasma proteins (Experiment 3); type: in vitro ADME, SD strain rat; details: 37° C., 5 μg/ml of Pt, rat plasma
Method: A solution of the test compound was added to plasma obtained from SD strain rat at a ratio of 1:19 by volume which corresponded to 5 μg/ml of Pt. The mixture was incubated at 37° C. under dark. At a predetermined time, the mixture was sampled, and filtered with a molecular sieve membrane (manufactured by Amico Centriflow PMS) under centrifugation. The Pt content in the filtrate unbound Pt was assayed by an atomic absorption spectrophotometry.

[5] = test system: Colon 26 carcinoma; experiment: In vivo antitumor activity against Colon 26 carcinoma, i.p. on days 4, 6 and 8 (Experiment 2); design: species or system CDF1/Crj strain male mouse; details: 40 mg/kg i.p. on day 4, 6 and 8 after implantation; tumor weighed day 14
Method: A small piece of Colon 26 tumor (1-2 mm^3) was subcutaneously implanted in a lateral region of abdomen of a CDF1 /Crj strain male mouse (7 weeks old). Four days after the implantation, mice with the almost same size of tumor were divided into groups of 5-6 members each, and each mouse was intraperitoneally administered the test compound on day 4, 6, and 8 after implantation in a dose of 40 mg/kg one day. Fourteen days after the implantation, each mouse was sacrificed, and the tumor thereof was weighed to calculate the GIR (%) by the following equation. [formula] where C and T represent the mean weights of tumor of the control group and the group administered the test compound, respectively.

[6] = 12 mg/kg i.p., 1 day after administration
[7] = 12 mg/kg i.p., 3 days after administration
[8] = 12 mg/kg i.p., 5 days after administration
[9] = 60 mg/kg i.p., 1 day after administration
[10] = 60 mg/kg i.p., 3 days after administration
[11] = 60 mg/kg i.p., 5 days after administration

Compound	GIR (growth inhibitory ratio) ([3]; 40 mg/kg i.p. single) [%]	GIR (growth inhibitory ratio) ([3]; 60 mg/kg i.p. single) [%]	GIR (growth inhibitory ratio) ([3]; 80 mg/kg i.p. single) [%]	GIR (growth inhibitory ratio) ([3]; 120 mg/kg i.p. single) [%]	GIR (growth inhibitory ratio) ([3]; 160 mg/kg i.p. single)	CIR [5] [%]	BUN (urea nitrogen in blood, mean ± SD) [1, 9] [mg/dL]	Body weight (mean ± SD) [1, 9] [g]	BUN (urea nitrogen in blood, mean ± SD) [1, 10] [mg/dL]	Body weight (mean ± SD) [1, 10] [g]	BUN (urea nitrogen in blood, mean ± SD) [1, 11] [mg/dL]	Body weight (mean ± SD) [1, 11] [g]	other results
[NH2][Pt]([NH2])([Cl])[Cl] [CDDP, cisplatin, reference compound]													BUN (urea nitrogen in blood, mean ± SD) [1, 6]: 23.3 ± 4.7 mg/dL; Body weight (mean ± SD) [1, 6]: 24.6 ± 1.1 g; BUN (urea nitrogen in blood, mean ± SD) [1, 7]: 38.5 ± 28.9 mg/dL; Body weight (mean ± SD) [1, 7]: 22.55 ± 1.1 g; BUN (urea nitrogen in blood, mean ± SD) [1, 8]: 65.2 ± 31.5 mg/dL; Body weight (mean ± SD) [1, 8]: 19.0 ± 1.5 g; antitumor activity (in words) ([2]; Rosenberg et al, Nature 222, 385 (1969)): has antitumor activity; nephrotoxicity (in words) ([2]; known platinum complexes including CDDP): very serious nephrotoxicity; GIR (growth inhibitory ratio) ([3]; 4 mg/kg i.p. single): 26%; GIR (growth inhibitory ratio) ([3]; 6 mg/kg i.p. single): 51%; GIR (growth inhibitory ratio) ([3]; 8 mg/kg i.p. single): 62%; GIR (growth inhibitory ratio) ([3]; 12 mg/kg i.p. single): 79%; GIR (growth inhibitory ratio) ([3]; 16 mg/kg i.p. single): died; Percent binding to plasma proteins ([4]; 1 hr incubation): 16%; Percent binding to plasma proteins ([4]; 4 hr incubation): 62%; Percent binding to plasma proteins ([4]; 8 hr incubation): 86%; Percent binding to plasma proteins ([4]; 24 hr incubation): 93%
NC[C@H]1CCCN1.O=C([O-])C1(C(=O)[O-])CCC1.[Pt+2] [Compound 1, 1,1-cyclobutanedicarboxylate(2-aminomethylpyrrolidine)platinum(II)]	79	87	98	97	died	98							
(R)-1,1-cyclobutanedicarboxylate(2-aminomethylpyrrolidine)platinum(II) [Compound 3]	70	85	90	95	died	95	18.3 ± 3.1	23.4 ± 1.5	13.8 ± 1.8	20.1 ± 1.2	13.8 ± 7.6	17.5 ± 0.7	
(S)-1,1-cyclobutanedicarboxylate(2-aminomethylpyrrolidine)platinum(II) [Compound 2]	73	88	94	98	died	99	20.0 ± 2.6	23.1 ± 1.4	17.7 ± 3.1	19.9 ± 1.6	15.4 ± 5.5	17.9 ± 1.1	
cis-dichloro-trans-dihydroxy(2-aminomethylazetidine)platinum(IV) [Compound 19]	60	77	85	92	95%								
